Test results: the supplement of paper PMC10307832

How the values were obtained:
Assay in all cases: relative viability (nuclei count vs DMSO), 5 days (fraction); higher = more cells survive
Seliciclib = compound: CC[C@H](CO)Nc1nc(NCc2ccccc2)c2ncn(C(C)C)c2n1 [Seliciclib]
In short: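 Lung cancer cell lines were seeded into 1536-well plates, kept overnight at 37 °C and pinned with five library-drug doses (not always all listed) spaced by √10. After 5 days, nuclei were Hoechst-stained, imaged at 4× and counted with MetaXpress. Viability is treated-well nuclei over vehicle-well nuclei, taken as a median across plates. Plates needed control CV below 25% and at least one doubling.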

Seliciclib + Tozasertib = compound: CC[C@H](CO)Nc1nc(NCc2ccccc2)c2ncn(C(C)C)c2n1 [Seliciclib] + Cc1cc(Nc2cc(N3CCN(C)CC3)nc(Sc3ccc(NC(=O)C4CC4)cc3)n2)n[nH]1 [Tozasertib] (partner 0.1 µM)
In short: (§1)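 For relative viability, nuclei counts in treated wells were divided by those in vehicle wells. Lung cancer cell lines had been pin-tool dosed in 1536-well plates the day after seeding and cultured for 5 days, then fixed and stained in one step (final 0.05% Triton X-100, 1% formaldehyde, 1 ug/ml Hoechst) and imaged at 4×. Doses were one drug alone or a fixed anchor-drug dose plus five library-drug doses (not always all listed) in √10 steps, and values are duplicate-plate medians.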

Seliciclib + Trametinib = compound: CC[C@H](CO)Nc1nc(NCc2ccccc2)c2ncn(C(C)C)c2n1 [Seliciclib] + CC(=O)Nc1cccc(-n2c(=O)n(C3CC3)c(=O)c3c(Nc4ccc(I)cc4F)n(C)c(=O)c(C)c32)c1 [Trametinib] (partner 0.02 µM)
In short: as §1

Seliciclib + AZD7762 = compound: CC[C@H](CO)Nc1nc(NCc2ccccc2)c2ncn(C(C)C)c2n1 [Seliciclib] + NC(=O)Nc1cc(-c2cccc(F)c2)sc1C(=O)N[C@H]1CCCNC1 [AZD7762] (partner 0.2 µM)
In short: as §1

| Cell Line | relative viability (Seliciclib; 0.08 µM) | relative viability (Seliciclib; 0.253 µM) | relative viability (Seliciclib; 0.8 µM) | relative viability (Seliciclib; 2.53 µM) | relative viability (Seliciclib; 8 µM) | relative viability (Seliciclib + Tozasertib; first compound 0.08 µM) | relative viability (Seliciclib + Tozasertib; first compound 0.253 µM) | relative viability (Seliciclib + Tozasertib; first compound 0.8 µM) | relative viability (Seliciclib + Tozasertib; first compound 2.53 µM) | relative viability (Seliciclib + Tozasertib; first compound 8 µM) | relative viability (Seliciclib + Trametinib; first compound 0.08 µM) | relative viability (Seliciclib + Trametinib; first compound 0.253 µM) | relative viability (Seliciclib + Trametinib; first compound 0.8 µM) | relative viability (Seliciclib + Trametinib; first compound 2.53 µM) | relative viability (Seliciclib + Trametinib; first compound 8 µM) | relative viability (Seliciclib + AZD7762; first compound 0.08 µM) | relative viability (Seliciclib + AZD7762; first compound 0.253 µM) | relative viability (Seliciclib + AZD7762; first compound 0.8 µM) | relative viability (Seliciclib + AZD7762; first compound 2.53 µM) | relative viability (Seliciclib + AZD7762; first compound 8 µM) |
| --- | --- | --- | --- | --- | --- | --- | --- | --- | --- | --- | --- | --- | --- | --- | --- | --- | --- | --- | --- | --- |
| NCI-H2087 | 1.03 | 1.08 | 0.956 | 0.836 | 0.791 | 0.252 | 0.234 | 0.242 | 0.231 | 0.192 | 0.202 | 0.203 | 0.217 | 0.145 | 0.196 | 1.28 | 1.46 | 1.33 | 1.24 | 1.11 |
| NCI-H2228 | 0.974 | 0.88 | 1.01 | 0.923 | 0.753 | 0.313 | 0.318 | 0.267 | 0.241 | 0.178 | 0.504 | 0.204 | 0.498 | 0.497 | 0.528 |  |  |  |  |  |
| NCI-H727 | 0.85 | 0.891 | 0.8 | 0.796 | 0.75 | 0.616 | 0.89 | 0.528 | 0.557 | 0.487 | 0.388 | 0.443 | 0.399 | 0.377 | 0.335 | 0.611 | 0.731 | 0.567 | 0.522 | 0.787 |
| NCI-H650 | 0.942 | 0.892 | 1.24 | 0.591 | 0.831 | 0.693 | 0.782 | 0.704 | 0.464 | 0.584 | 0.96 | 1.08 | 1.01 | 0.863 | 0.877 | 1.15 | 0.863 | 1.26 | 0.947 | 1.07 |
| NCI-H520 | 0.918 |  | 0.968 | 1.12 | 0.843 | 0.47 |  | 0.406 | 0.459 | 0.573 | 0.617 | 0.411 | 0.669 | 0.599 | 0.625 |  |  |  |  |  |
| EBC-1 | 0.945 | 0.84 | 1.06 | 0.985 | 0.663 |  |  |  |  |  |  |  |  |  |  |  |  |  |  |  |
| NCI-H661 | 0.964 | 1.02 | 0.966 | 0.916 | 0.756 | 0.338 | 0.362 | 0.373 | 0.359 | 0.355 | 0.59 | 0.581 | 0.5 | 0.491 | 0.416 |  |  |  |  |  |
| NCI-H1299 | 0.959 | 1.12 | 1.03 | 1.02 | 1.03 |  |  |  |  |  |  |  |  |  |  |  |  |  |  |  |
| LK-2 | 0.99 | 0.737 | 0.966 | 0.759 | 0.69 | 0.203 | 0.154 | 0.17 | 0.175 | 0.168 | 0.747 | 0.575 | 0.69 | 0.693 | 0.577 | 0.414 | 0.379 | 0.584 | 0.187 | 0.293 |
| NCI-H1993 | 0.979 | 0.761 | 0.884 | 0.723 | 0.633 | 0.546 | 0.578 | 0.596 | 0.541 | 0.508 | 0.649 | 0.543 | 0.47 | 0.508 | 0.43 | 0.778 | 0.739 | 0.843 | 0.662 | 0.63 |
| SK-LU-1 | 1.03 | 1.05 | 1.07 | 0.975 | 0.782 | 0.33 | 0.383 | 0.354 | 0.314 | 0.326 | 0.548 | 0.426 | 0.54 | 0.601 | 0.415 |  |  |  |  |  |
| COR-L23 | 1.02 | 1.15 | 1.06 | 1.01 | 0.821 | 0.224 | 0.234 | 0.187 | 0.164 | 0.154 | 0.577 | 0.464 | 0.577 | 0.566 | 0.471 |  |  |  |  |  |
| NCI-H1650 | 0.926 | 1.1 | 0.95 | 0.824 | 0.663 | 0.387 | 0.437 | 0.364 | 0.422 | 0.318 | 0.572 | 0.69 | 0.471 | 0.433 | 0.422 |  |  |  |  |  |
| SK-MES-1 | 0.999 | 1.03 | 0.942 | 1 | 0.857 | 0.907 | 0.939 | 0.807 | 0.881 | 0.674 | 0.478 | 0.482 | 0.55 | 0.602 | 0.504 |  |  |  |  |  |
| IA-LM | 1.01 | 1.1 | 0.919 | 1 | 0.819 |  |  |  |  |  |  |  |  |  |  |  |  |  |  |  |
| NCI-H2009 | 1.03 | 1.16 | 1.03 | 0.996 | 0.994 | 0.767 | 0.742 | 0.809 | 0.69 | 0.635 | 0.278 | 0.208 | 0.264 | 0.262 | 0.296 |  |  |  |  |  |
| NCI-H1563 | 1.03 | 0.872 | 1.06 | 0.833 | 0.897 |  |  |  |  |  |  |  |  |  |  |  |  |  |  |  |
| UMC-11 | 0.974 | 0.872 | 1.03 | 0.926 | 0.824 | 0.202 | 0.202 | 0.214 | 0.194 | 0.202 | 0.726 | 0.593 | 0.877 | 0.657 | 0.581 |  |  |  |  |  |
| ABC-1 | 0.995 | 1.12 | 1 | 0.615 | 0.582 | 0.149 | 0.131 | 0.189 | 0.186 | 0.207 |  |  |  |  |  | 0.944 | 0.764 | 0.782 | 0.719 | 0.637 |
| SW 1573 | 1.03 | 0.989 | 0.888 | 0.913 | 0.757 | 0.248 | 0.162 | 0.195 | 0.136 | 0.175 | 0.561 | 0.48 | 0.566 | 0.57 | 0.341 |  |  |  |  |  |
| NCI-H1792 | 0.938 | 0.939 | 0.944 |  | 0.791 |  |  |  |  |  | 0.353 | 0.329 | 0.408 |  | 0.372 | 0.897 | 0.57 | 0.567 |  | 0.736 |
| NCI-H2023 | 0.989 | 0.956 | 0.964 | 0.857 | 0.725 | 0.393 | 0.357 | 0.337 | 0.36 | 0.22 | 0.542 | 0.457 | 0.501 | 0.447 | 0.264 |  |  |  |  |  |
| COR-L 105 | 0.932 | 1.14 | 0.924 | 0.851 | 0.902 | 0.423 | 0.321 | 0.366 | 0.346 | 0.436 | 0.469 | 0.36 | 0.427 | 0.451 | 0.401 |  |  |  |  |  |
